Common to all, as to assay: DTP human tumour cell line panel, 48 h
Assay [1] has as its system DMS 273 small cell lung.
Assay [2] has as its system HOP-18 NSCLC.
The test system of assay [3] is KM20L2 colon.
The test system of assay [4] is M19-MEL melanoma.
Assay [5] has as its system SNB-78 CNS.
Assay [6] deals with RXF-631 renal.

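Protocol summary: plate cells (96-well), add compound at 5 concentrations, incubate 48 h, interpolate endpoints linearly. TGI: total growth inhibition.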

By TGI is commonly meant the concentration at which net growth stops. The low end stands for more potent growth arrest, the high end for less potent growth arrest. Take `N#CC(NNC(=O)c1ccccc1O)c1ccccc1O` (stereo not given): the total growth inhibition concentration (TGI) is above 100 µM in assay [1]; above 100 µM in assay [2]; above 100 µM in assay [3]; 27.2 µM in assay [4]; above 100 µM in assay [5].
Regarding `O=C(O)OC12CCCCCC1C(=O)C1CCCCC12` (stereo not given), the TGI in assay [1], in assay [2], in assay [3], in assay [4] and in assay [5] was above 100 µM in each case.
Consider `COC(=O)C(Cc1ccc2c(c1)OCO2)(NC(=O)c1ccccc1)P(=O)(OC)OC` (stereo not given), for which the total growth inhibition concentration (TGI) in assay [1], in assay [3], in assay [4], in assay [6] and in assay [5] was above 100 µM in each case.
On to `CCCCCCCCCCCCOC(=N)N1CCOCC1`, for which the TGI came out at 25.1 µM in assay [1]; 16.3 µM in assay [2]; 13.4 µM in assay [3]; 17.7 µM in assay [4]; 22.6 µM in assay [6]; 27.8 µM in assay [5].
Take `CSc1cnc2ccccc2c1Sc1cn(C)c2ccccc2c1=O`: the concentration for total growth inhibition (TGI) in assay [1] was above 100 µM; in assay [2], above 100 µM; in assay [3], above 100 µM; in assay [4], above 100 µM; in assay [6], 42.5 µM.
As for `CC(C)OP(=O)(OC(C)C)C(=Nc1ccc(N=C(NNc2ccc([N+](=O)[O-])cc2)P(=O)(OC(C)C)OC(C)C)cc1)NNc1ccc([N+](=O)[O-])cc1`, the TGI in assay [1], in assay [3] and in assay [4] was above 100 µM each time.
As to `CCCCc1c2c([n+]([O-])c3c1CCCC3)CCCC2`, the TGI in assay [1], in assay [3] and in assay [4] was above 100 µM each time.
`CC1CC(=O)C(CC(=O)O)[C@H]1C(C(=O)C(=O)Nc1cc(Cl)ccc1Cl)[N+](=O)[O-]` (stereo not given in full): the TGI in assay [2], in assay [3] and in assay [4] was above 100 µM throughout.
